Assay results taken from patent publication US20240251801A1, “COMPOSITIONS AND METHODS FOR IMPROVING PLANT HEALTH AND CONTROLLING PLANT DISEASE” (AgBiome, Inc., priority 2021, published 2024).

Columns and labels:
[1] = test system: Phakopsora pachyrhizi; assay: Soybean leaf disk assay, control of Asian soybean rust; type: in vivo; conditions: soybean leaf disks, strain 1×10^8 CFU/mL, azoxystrobin 0.5 ppm
Method: For detached-leaf assays performed in the following examples, bacterial strains stored in a freezer (−80° C.) were each streaked onto Luria Bertani (LB) agar (25 g LB broth and 15 g agar per liter of deionized water) in an 8.5-cm diameter plastic plate. A single colony from the plate was picked and placed in 50 ml of either LB liquid broth or a liquid broth consisting of NaCl (5 g), tryptone (10 g), nutrient broth (8 g), CaCl2 (0.14 mM), MgCl2·6H2O (0.2 mM), and MnCl2·4H2O (0.01 mM) per liter of deionized water in a 250-ml flask. Calcium chloride (CaCl2), MgCl2, and MnCl2 were filtered sterilized using 0.22 μm vacuum filter and were then added to NaCl, tryptone, nutrient broth (which were autoclaved together). Cultures were harvested after 48 h by pelleting cells and re-suspending to original volume in sterile H2O. Colony forming units (CFU/mL) were determined using standard dilution plate count method, and plates were inspected for signs of contamination. Sterile distilled water was added to achieve a final concentration needed in detached-leaf or growth chamber strain evaluations.
The susceptible soybean cultivar Williams 82 was used in strain evaluation using the detached-leaf technique (Twizeyimana and Hartman, 2010). […]
Data recorded were numbers of uredinia in 1-cm diameter circle recorded 14 days after inoculation. […]

[2] = test system: Phakopsora pachyrhizi; assay: Soybean leaf disc assay with wettable powder formulations, control of Asian soybean rust; type: in vivo; conditions: soybean leaf discs, 150 μL, azoxystrobin 0.25 ppm as control
Method: For the tray drying method, 829 grams of cell paste obtained from a liquid culture of ATP15329 was mixed with 18.24 g of glycerol and 72.95 g of microcel E using a food processor. Half of the cell paste was dried at 40° C. to a water activity of less than 0.30, at which time it contained 3.53E11 CFU/g. The other half was dried at 25° C. and 50% RH to a water activity of less than 0.6, at which time it contained 4.75E11 CFU/g. The dried powder formulation was stored in heat sealed mylar pouches at 4° C.
For the spray drying method, 200 grams of cell paste obtained from a liquid culture of ATP15329 was mixed with 22 g of skim milk powder using an emulsion blender. This material was spray dried at outlet temperature of 70° C., at which time it contained 7.86E10 CFU/g. The dried powder formulation was stored in heat sealed mylar pouches at 4° C.
This evaluation followed the protocol used in Example 5. Briefly, leaf disks were each sprayed with 150 μL of different formulations of the bacterial strain AIP015329, azoxystrobin (0.25 ppm) (fungicide control) on the abaxial surface with 150 μl using a fingertip sprayer (Container & Packaging Supply, Eagle, ID) fitted to a 15 mL conical centrifuge tube. Leaf disks were placed adaxial side down on saturated 20×20 cm filter paper in a plastic container (Blister Box 20×20 cm, Placon, Madison, WI); two filter papers were used per box. Boxes with leaf disks were incubated at room temperature in the dark, 24 hours later, leaf disks in the box were inoculated as described earlier. Inoculated and non-inoculated/not treated controls were added. After inoculation, boxes were maintained and incubated as described in the first-round evaluations.
Data recorded were numbers of uredinia in 1-cm diameter circle recorded 14 days after inoculation. […] Data were analyzed using analysis of variance (ANOVA) in PROC GLM of SAS (version 9.4; SAS Institute Inc., Cary, NC) and significant differences (P<0.05) were observed among treatments (Table 9).

CO/C=C(/C(=O)OC)c1ccccc1Oc1cc(Oc2ccccc2C#N)ncn1 [Azoxystrobin, azoxystrobin]
Disease Control (%) Confirmation ([1]; confirmation): 95.7 (a) %
Disease Control (%) Primary Screen ([1]; uredinia counted 14 days after inoculation): 99.8 (a) %
Disease Control (%) Spray dry ([2]; spray dried formulation of the strain, 14 days after inoculation): 100 (a) %
Disease Control (%) Tray dry Dried at 25° C. ([2]; tray dried formulation dried at 25° C.): 100 (a) %
Disease Control (%) Tray dry Dried at 40° C. ([2]; tray dried formulation dried at 40° C.): 100 (a) %
